# Measurements: patent US7875647B2, “Heteroaryl-pyrazole derivatives as cannabinoid CB1 receptor antagonists” (Green Cross Corporation, priority 2006, dated 2011)
# Molecular target: T1, Cannabinoid-1 receptor (CB1R) (Rattus norvegicus, UniProt P20272)
# T1 construct: The tissue obtained from the brain of SD rats was homogenized; from tissue; host or cells: brain of SD rats (membrane pellet of the homogenate)
# Experiment: Cannabinoid-1 receptor (CB1R) binding affinity assay ([3H]CP-55940, rat CB-1 receptor binding protocol)
# Settings: IC50(nM), brain tissue of SD rats, [3H]CP-55940, 30° C. 60 min
# T1 sequence (P20272 whole entry): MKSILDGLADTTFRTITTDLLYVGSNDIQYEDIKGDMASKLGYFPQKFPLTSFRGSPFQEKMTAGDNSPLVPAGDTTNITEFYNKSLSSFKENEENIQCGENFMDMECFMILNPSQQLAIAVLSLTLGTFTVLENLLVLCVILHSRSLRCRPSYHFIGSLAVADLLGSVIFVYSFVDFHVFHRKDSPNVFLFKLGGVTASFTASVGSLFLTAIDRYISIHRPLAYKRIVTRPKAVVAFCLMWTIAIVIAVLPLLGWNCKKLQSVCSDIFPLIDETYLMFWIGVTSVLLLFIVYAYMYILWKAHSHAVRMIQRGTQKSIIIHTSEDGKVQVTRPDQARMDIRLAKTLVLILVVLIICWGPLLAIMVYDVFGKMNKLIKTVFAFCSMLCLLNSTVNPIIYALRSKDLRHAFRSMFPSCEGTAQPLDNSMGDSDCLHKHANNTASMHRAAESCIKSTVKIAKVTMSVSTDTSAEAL
row,Compound,IC50 [nM]
1,"C=C(C)c1c(-c2nnc(C(C)(C)C)o2)nn(-c2ccc(Cl)cc2Cl)c1-c1ccc(Br)cc1 [Example 220, 2-(5-(4-bromophenyl)-1-(2,4-dichlorophenyl)-4-(prop-1-en-2-yl)-1H-pyrazol-3-yl)-5-tert-butyl-1,3,4-oxadiazole]",8.26
2,"CCCC(C)c1nnc(-c2nn(-c3ccc(Cl)cc3Cl)c(-c3ccc(Cl)cc3)c2CC)s1 (centres unmarked) [Example 412, 2-(5-(4-chlorophenyl)-1-(2,4-dichlorophenyl)-4-ethyl-1H-pyrazol-3-yl)-5-(pentan-2-yl)-1,3,4-thiadiazole]",11

# Same assay, conditions: brain tissue of SD rats, [3H]CP-55940, 30° C. 60 min; read-out: IC50
row,IC50 [nM],Compound
1,389,"Cc1c(-c2n[nH]c(-c3cccs3)n2)nn(-c2ccc(Cl)cc2Cl)c1-c1ccc(Cl)cc1 [Example 614, 3-(5-(4-Chlorophenyl)-1-(2,4-dichlorophenyl)-4-methyl-1H-pyrazol-3-yl)-5-(thiophen-2-yl)-1H-1,2,4-triazole]"
2,6.21,"CCc1c(-c2nnc(C3(Cc4ccc(Cl)cc4)CC3)o2)nn(-c2ccc(Cl)cc2Cl)c1-c1ccc(Br)cc1 [Example 281, 2-(1-(4-chlorobenzyl)cyclopropyl)-5-(5-(4-bromophenyl)-1-(2,4-dichlorophenyl)-4-ethyl-1H-pyrazol-3-yl)-1,3,4-oxadiazole]"
3,11,"Cc1c(-c2nnc(C3(c4ccccc4)CC3)o2)nn(-c2ccc(Cl)cc2Cl)c1-c1ccc(Cl)cc1 [Example 71, 2-(5-(4-chlorophenyl)-1-(2,4-dichlorophenyl)-4-methyl-1H-pyrazol-3-yl)-5-(1-phenylcyclopropyl)-1,3,4-oxadiazole]"
4,88.2,"Cc1c(-c2nnnn2Cc2ccncc2)nn(-c2ccc(Cl)cc2Cl)c1-c1ccc(Cl)cc1 [Example 587, 4-((5-(5-(4-Chlorophenyl)-1-(2,4-dichlorophenyl)-4-methyl-1H-pyrazol-3-yl)-1H-tetrazol-1-yl)methyl)pyridine]"
5,18.8,"CC(C)(C)c1nnc(-c2nn(-c3ccc(Cl)cc3Cl)c(-c3ccc(Br)cc3)c2C=O)o1 [Example 203, 5-(4-bromophenyl)-3-(5-tert-butyl-1,3,4-oxadiazol-2-yl)-1-(2,4-dichlorophenyl)-1H-pyrazole-4-carbaldehyde]"
6,12.5,"Cc1c(-c2nnc(C(C)(C)C)s2)nn(-c2ccc(Cl)cc2Cl)c1-c1ccc(Br)cc1 [Example 369, 2-(5-(4-Bromophenyl)-1-(2,4-dichlorophenyl)-4-methyl-1H-pyrazol-3-yl)-5-tert-butyl-1,3,4-thiadiazole]"
7,7.51,"Cc1c(-c2nnc(C3(c4ccc(Cl)cc4)CCC3)o2)nn(-c2ccccc2Br)c1-c1ccc(Cl)cc1 [Example 159, 2-(1-(2-bromophenyl)-5-(4-chlorophenyl)-4-methyl-1H-pyrazol-3-yl)-5-(1-(4-chlorophenyl)cyclobutyl)-1,3,4-oxadiazole]"
8,181,"Cc1c(-c2nnnn2C2CC2)nn(-c2ccc(Cl)cc2Cl)c1-c1ccc(Cl)cc1 [Example 599, 5-(5-(4-Chlorophenyl)-1-(2,4-dichlorophenyl)-4-methyl-1H-pyrazol-3-yl)-1-cyclopropyl-1H-tetrazole]"
9,12.1,"CC(=O)OCc1c(-c2nnc(C(C)(C)C)o2)nn(-c2ccc(Cl)cc2Cl)c1-c1ccc(Br)cc1 [Example 195, (5-(4-bromophenyl)-3-(5-tert-butyl-1,3,4-oxadiazol-2-yl)-1-(2,4-dichlorophenyl)-1H-pyrazol-4-yl)methyl acetate]"
10,5.15,"CCc1c(-c2nnc(C(C)(C)c3ccccc3)s2)nn(-c2ccc(Cl)cc2Cl)c1-c1ccc(Br)cc1 [Example 404, 2-(5-(4-bromophenyl)-1-(2,4-dichlorophenyl)-4-ethyl-1H-pyrazol-3-yl)-5-(2-phenylpropan-2-yl)-1,3,4-thiadiazole]"
11,699,"Cc1c(-c2n[nH]c(C3CCCC3)n2)nn(-c2ccc(Cl)cc2Cl)c1-c1ccc(Cl)cc1 [Example 611, 3-(5-(4-Chlorophenyl)-1-(2,4-dichlorophenyl)-4-methyl-1H-pyrazol-3-yl)-5-cyclopentyl-1H-1,2,4-triazole]"
12,12.1,"FC(F)c1c(-c2nnc(C3(c4ccc(Cl)cc4)CC3)o2)nn(-c2ccc(Cl)cc2Cl)c1-c1ccc(Cl)cc1 [Example 225, 2-(5-(4-chlorophenyl)-1-(2,4-dichlorophenyl)-4-(difluoromethyl)-1H-pyrazol-3-yl)-5-(1-(4-chlorophenyl)cyclopropyl)-1,3,4-oxadiazole]"
13,46,"CCCCc1nnc(-c2nn(-c3ccc(Cl)cc3Cl)c(-c3ccc(Cl)cc3)c2C)s1 [Example 355, 2-Butyl-5-(5-(4-chlorophenyl)-1-(2,4-dichlorophenyl)-4-methyl-1H-pyrazol-3-yl)-1,3,4-thiadiazole]"
14,62.1,"COC(C)(C)c1nnc(-c2nn(-c3ccc(Cl)cc3Cl)c(-c3ccc(Cl)cc3)c2C)s1 [Example 419, 2-(5-(4-chlorophenyl)-1-(2,4-dichlorophenyl)-4-methyl-1H-pyrazol-3-yl)-5-(2-methoxypropan-2-yl)-1,3,4-thiadiazole]"
15,7.53,"Cc1c(-c2nnc(C3(c4ccc(Cl)cc4)CC3)s2)nn(-c2ccccc2Cl)c1-c1ccc(Cl)cc1 [Example 433, 2-(1-(2-chlorophenyl)-5-(4-chlorophenyl)-4-methyl-1H-pyrazol-3-yl)-5-(1-(4-chlorophenyl)cyclopropyl)-1,3,4-thiadiazole]"
16,33.9,"Cc1c(-c2nnc(C3(C(F)(F)F)CCC3)s2)nn(-c2ccc(Cl)cc2Cl)c1-c1ccc(Cl)cc1 [Example 465, 2-(5-(4-chlorophenyl)-1-(2,4-dichlorophenyl)-4-methyl-1H-pyrazol-3-yl)-5-(1-(trifluoromethyl)cyclobutyl)-1,3,4-thiadiazole]"
17,30.9,"Cc1c(-c2nnc(CC3CCCC3)s2)nn(-c2ccc(Cl)cc2Cl)c1-c1ccc(Cl)cc1 [Example 357, 2-(5-(4-Chlorophenyl)-1-(2,4-dichlorophenyl)-4-methyl-1H-pyrazol-3-yl)-5-(cyclopentylmethyl)-1,3,4-thiadiazole]"
18,15.2,"Cc1c(-c2nnc(C(C)(C)C3CCCCC3)o2)nn(-c2ccc(Cl)cc2Cl)c1-c1ccc(Cl)cc1 [Example 64, 2-(5-(4-chlorophenyl)-1-(2,4-dichlorophenyl)-4-methyl-1H-pyrazol-3-yl)-5-(2-cyclohexylpropan-2-yl)-1,3,4-oxadiazole]"
19,135,"CC(C)(C)c1nnc(-c2nn(-c3ccc(Cl)cc3Cl)c(-c3ccc(Cl)cc3)c2CN2CCOCC2)o1 [Example 293, 4-((3-(5-tert-butyl-1,3,4-oxadiazol-2-yl)-5-(4-chlorophenyl)-1-(2,4-dichlorophenyl)-1H-pyrazol-4-yl)methyl)morpholine]"
20,15.6,"COC(=O)NCc1c(-c2nnc(C(C)(C)C)o2)nn(-c2ccc(Cl)cc2Cl)c1-c1ccc(Cl)cc1 [Example 232, Methyl (3-(5-tert-butyl-1,3,4-oxadiazol-2-yl)-5-(4-chlorophenyl)-1-(2,4-dichlorophenyl)-1H-pyrazol-4-yl)methylcarbamate]"
21,31.3,"CC(C)(C)c1nnc(-c2nn(-c3ccc(Cl)cc3Cl)c(-c3ccc(Br)cc3)c2COc2ccc(C(F)(F)F)cn2)s1 [Example 526, 2-(5-(4-bromophenyl)-1-(2,4-dichlorophenyl)-4-((5-(trifluoromethyl)pyridin-2-yloxy)methyl)-1H-pyrazol-3-yl)-5-tert-butyl-1,3,4-thiadiazole]"
22,105,"Cc1c(-c2nnnn2Cc2ccccn2)nn(-c2ccc(Cl)cc2Cl)c1-c1ccc(Cl)cc1 [Example 583, 2-((5-(5-(4-Chlorophenyl)-1-(2,4-dichlorophenyl)-4-methyl-1H-pyrazol-3-yl)-1H-tetrazol-1-yl)methyl)pyridine]"
23,127,"CCC(C)(C)c1nnc(-c2nn(-c3ccc(Cl)cc3Cl)c(-c3ccc(Cl)cc3)c2Cl)s1 [Example 537, 2-(4-chloro-5-(4-chlorophenyl)-1-(2,4-dichlorophenyl)-1H-pyrazol-3-yl)-5-tert-pentyl-1,3,4-thiadiazole]"
24,14.1,"C=Cc1c(-c2nnc(C3(c4ccc(Cl)cc4)CC3)o2)nn(-c2ccc(Cl)cc2Cl)c1-c1ccc(Cl)cc1 [Example 229, 2-(5-(4-chlorophenyl)-1-(2,4-dichlorophenyl)-4-vinyl-1H-pyrazol-3-yl)-5-(1-(4-chlorophenyl)cyclopropyl)-1,3,4-oxadiazole]"
25,67.9,"Cc1c(-c2nnn(C3CCCC3)n2)nn(-c2ccc(Cl)cc2Cl)c1-c1ccc(Cl)cc1 [Example 578, 5-(5-(4-Chlorophenyl)-1-(2,4-dichlorophenyl)-4-methyl-1H-pyrazol-3-yl)-2-cyclopentyl-2H-tetrazole]"
26,13,"Cc1c(-c2nnc(C3(c4ccc(Cl)cc4)CCC3)o2)nn(-c2ccc(Cl)cc2Cl)c1-c1ccc(Cl)cc1 [Example 110, 2-(5-(4-chlorophenyl)-1-(2,4-dichlorophenyl)-4-methyl-1H-pyrazol-3-yl)-5-(1-(4-chlorophenyl)cyclobutyl)-1,3,4-oxadiazole]"
27,50.6,"CCCCCCn1nnnc1-c1nn(-c2ccc(Cl)cc2Cl)c(-c2ccc(Cl)cc2)c1C [Example 603, 5-(5-(4-Chlorophenyl)-1-(2,4-dichlorophenyl)-4-methyl-1H-pyrazol-3-yl)-1-hexyl-1H-tetrazole]"
28,9.6,"Cc1c(-c2nnc(C3(c4ccccc4)CC3)s2)nn(-c2ccc(Cl)cc2Cl)c1-c1ccc(Cl)cc1 [Example 487, 2-(5-(4-chlorophenyl)-1-(2,4-dichlorophenyl)-4-methyl-1H-pyrazol-3-yl)-5-(1-phenylcyclopropyl)-1,3,4-thiadiazole]"
29,10.8,"CC(=O)c1c(-c2nnc(C3(c4ccc(Cl)cc4)CC3)o2)nn(-c2ccc(Cl)cc2Cl)c1-c1ccc(Cl)cc1 [Example 215, 1-(5-(4-chlorophenyl)-3-(5-(1-(4-chlorophenyl)cyclopropyl)-1,3,4-oxadiazol-2-yl)-1-(2,4-dichlorophenyl)-1H-pyrazol-4-yl)ethanone]"
30,231,"Cc1c(-c2nnc(-c3ccccc3)s2)nn(-c2ccc(Cl)cc2Cl)c1-c1ccc(Cl)cc1 [Example 356, 2-(5-(4-Chlorophenyl)-1-(2,4-dichlorophenyl)-4-methyl-1H-pyrazol-3-yl)-5-phenyl-1,3,4-thiadiazole]"
